According to patent publication US9271971B2, “Pyrido[3,4-B]indoles and methods of use” (Medivation Technologies, Inc., priority 2009, dated 2016):

How the values were obtained:
[1] = biological target: T1, human recombinant histamine H2 receptor (Homo sapiens, UniProt P25021); experiment: Histamine H2 radioligand binding assay; conditions: [125I]Aminopotentidine specific binding; for inhibition at 1 µM: read-out: Percentage Inhibition, Histamine Binding (1 μM) H2
T1 construct: expressed in transfected cells; host or cells: Chinese hamster ovary (CHO) K1 cells
Description: To evaluate in radioligand binding assays the activity of compounds of the invention, human recombinant histamine H2 receptor expressed in Chinese hamster ovary (CHO) K1 cells [Ruat, M., Proc. Natl. Acad. Sci. USA. (1990), 87(5):1658] in a 50 mM Phosphate buffer, pH 7.4 was used. Compounds of the invention were incubated with 0.1 nM [^125I]Aminopotentidine for 120 min. at 25° C. Non-specific binding was estimated in the presence of 3 μM Tiotidine. Receptor proteins were filtered and washed, the filters were then counted to determine [^125I]Aminopotentidine specifically bound. Compounds were screened at 1 μM or lower, using 1% DMSO as vehicle. Biochemical assay results are presented as the percent inhibition of specific binding in Table 2.

[2] = biological target: T2, human recombinant adrenergic α2B receptor (Homo sapiens, UniProt P18089); experiment: Adrenergic α2B radioligand binding assay; conditions: [3H]Rauwolscine specific binding; for inhibition at 1 µM: read-out: Percent Inhibition of ligand binding, Adrenergic (1 μM ligand conc.) α2B; for inhibition at 0.1 µM: read-out: Percent Inhibition of ligand binding, Adrenergic (0.1 μM ligand conc.) α2B
T2 construct: expressed in transfected cells; host or cells: Chinese hamster ovary (CHO-K1) cells
T2 sequence (P18089 1-450): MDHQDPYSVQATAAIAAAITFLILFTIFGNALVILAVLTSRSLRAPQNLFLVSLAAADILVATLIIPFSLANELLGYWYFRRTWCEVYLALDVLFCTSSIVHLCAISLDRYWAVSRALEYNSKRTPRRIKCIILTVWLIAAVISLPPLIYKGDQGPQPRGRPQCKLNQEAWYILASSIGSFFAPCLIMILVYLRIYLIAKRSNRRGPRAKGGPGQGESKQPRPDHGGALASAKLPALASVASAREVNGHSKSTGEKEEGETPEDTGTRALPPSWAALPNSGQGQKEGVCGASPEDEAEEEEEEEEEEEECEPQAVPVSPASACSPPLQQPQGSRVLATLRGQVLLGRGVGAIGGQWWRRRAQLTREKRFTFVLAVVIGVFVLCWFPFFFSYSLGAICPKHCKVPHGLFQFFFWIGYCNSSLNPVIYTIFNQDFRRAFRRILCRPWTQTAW
Description: To evaluate in radioligand binding assays the activity of compounds of the invention, human recombinant adrenergic α2B receptor expressed in Chinese hamster ovary (CHO-K1) cells [Uhlen, S et al., Eur J Pharmacol. (1998), 343(1):93] in a modified Tris-HCl buffer (50 mM Tris-HCl, pH 7.4, 12.5 mM MgCl2, 1 mM EDTA, 0.2% BSA) was used. Compounds of the invention were incubated with 2.5 nM [^3H]Rauwolscine for 60 min. at 25° C. Non-specific binding was estimated in the presence of 10 μM Prozosin. Receptor proteins were filtered and washed, the filters were then counted to determine [^3H]Rauwolscine specifically bound. Compounds were screened at 1 μM or lower, using 1% DMSO as vehicle. Compounds of the invention were tested in this biochemical assay. Biochemical assay results for representative compounds were presented as the percent inhibition of specific binding in Table 3.

[3] = biological target: T3, human recombinant serotonin (5-Hydroxytryptamine) 5-HT2C receptor (Homo sapiens, UniProt P28335); experiment: Serotonin 5-HT2C radioligand binding assay; conditions: [3H]Mesulergine specific binding; for inhibition at 1 µM: read-out: Percent Inhibition of ligand binding, Serotonin (1 μM ligand concentration) 5-HT2C
T3 construct: expressed in transfected cells; host or cells: Chinese hamster ovary (CHO-K1) cells
T3 sequence (P28335 33-458): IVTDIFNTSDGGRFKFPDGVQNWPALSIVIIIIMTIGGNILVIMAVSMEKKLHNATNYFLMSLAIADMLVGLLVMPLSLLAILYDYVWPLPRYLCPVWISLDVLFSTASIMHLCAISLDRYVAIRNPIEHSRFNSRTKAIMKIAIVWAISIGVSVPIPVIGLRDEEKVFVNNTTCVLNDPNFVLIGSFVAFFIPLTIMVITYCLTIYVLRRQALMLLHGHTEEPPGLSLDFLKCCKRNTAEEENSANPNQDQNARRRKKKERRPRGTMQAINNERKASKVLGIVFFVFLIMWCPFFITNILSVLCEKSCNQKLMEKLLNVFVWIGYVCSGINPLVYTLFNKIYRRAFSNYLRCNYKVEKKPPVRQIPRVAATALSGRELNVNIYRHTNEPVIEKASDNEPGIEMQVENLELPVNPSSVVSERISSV
Description: To evaluate in radioligand binding assays the activity of compounds of the invention, human recombinant serotonin (5-Hydroxytryptamine) 5-HT2C receptor expressed in Chinese hamster ovary (CHO-K1) cells [Wolf, W. A. et al., J. Neurochem. (1997), 69:1449] in a modified Tris-HCl buffer (50 mM Tris-HCl, pH 7.4, 0.1% Ascorbic Acid, 10 μM Pargyline) was used. Compounds of the invention were incubated with 1 nM [^3H]Mesulergine for 60 min. at 25° C. Non-specific binding was estimated in the presence of 1 μM Mianserin. Receptor proteins were filtered and washed, the filters were then counted to determine [^3H]Mesulergine specifically bound. Compounds were screened at 1 μM or lower, using 1% DMSO as vehicle. Biochemical assay results are presented as the percent inhibition of specific binding in Table 4.

[4] = biological target: T4, human recombinant serotonin (5-Hydroxytryptamine) 5-HT6 receptor (Homo sapiens, UniProt P50406); experiment: Serotonin 5-HT6 radioligand binding assay; conditions: [3H]LSD specific binding; for inhibition at 1 µM: read-out: Percent Inhibition of ligand binding, Serotonin (1 μM ligand concentration) 5-HT6
T4 construct: expressed in transfected cells; host or cells: human HeLa cells
Description: To evaluate in radioligand binding assays the activity of compounds of the invention, human recombinant serotonin (5-Hydroxytryptamine) 5-HT6 receptor expressed in human HeLa cells [Monsma, F. J. Jr et al., Mol. Pharmacol. (1993), 43:320] in a modified Tris-HCl buffer (50 mM Tris-HCl, pH 7.4, 150 mM NaCl, 2 mM Ascorbic Acid, 0.001% BSA) was used. Compounds of the invention were incubated with 1.5 nM [3H]Lysergic acid diethylamide (LSD) for 120 min. at 37° C. Non-specific binding was estimated in the presence of 5 μM Serotonin (5-HT). Receptor proteins were filtered and washed, the filters were then counted to determine[3H]LSD specifically bound. Compounds were screened at 1 μM or lower, using 1% DMSO as vehicle. Biochemical assay results are presented as the percent inhibition of specific binding in Table 4.

T1 sequence (P25021 whole entry): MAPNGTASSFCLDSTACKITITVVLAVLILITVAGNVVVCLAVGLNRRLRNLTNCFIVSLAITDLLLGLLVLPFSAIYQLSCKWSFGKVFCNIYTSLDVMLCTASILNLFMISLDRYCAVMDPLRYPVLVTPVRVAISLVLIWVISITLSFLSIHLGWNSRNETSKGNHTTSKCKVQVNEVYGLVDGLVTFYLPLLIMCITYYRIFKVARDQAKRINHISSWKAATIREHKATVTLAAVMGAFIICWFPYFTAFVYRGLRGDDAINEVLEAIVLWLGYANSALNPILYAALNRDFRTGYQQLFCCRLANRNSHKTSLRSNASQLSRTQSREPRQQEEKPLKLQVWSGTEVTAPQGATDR
T4 sequence (P50406 whole entry): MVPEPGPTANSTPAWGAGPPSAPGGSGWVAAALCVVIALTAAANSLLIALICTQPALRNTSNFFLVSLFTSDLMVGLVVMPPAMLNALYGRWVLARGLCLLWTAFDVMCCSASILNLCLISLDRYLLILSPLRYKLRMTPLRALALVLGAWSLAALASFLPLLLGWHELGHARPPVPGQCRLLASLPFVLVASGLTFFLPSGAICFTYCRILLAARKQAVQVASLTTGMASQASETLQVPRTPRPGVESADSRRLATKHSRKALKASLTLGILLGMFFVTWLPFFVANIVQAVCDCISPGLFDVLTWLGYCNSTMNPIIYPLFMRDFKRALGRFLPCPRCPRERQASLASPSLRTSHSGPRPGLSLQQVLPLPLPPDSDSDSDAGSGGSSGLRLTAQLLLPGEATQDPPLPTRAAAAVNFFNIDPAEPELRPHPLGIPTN

Structure (SMILES)	inhibition at 1 µM [1]	inhibition at 1 µM ([2]; 1 μM)	inhibition at 1 µM [3]	inhibition at 1 µM [4]	inhibition at 0.1 µM [2]	Percentage Inhibition, Histamine Binding (1 μM) H2 ([1]; 1 µM)	Percent Inhibition of ligand binding, Adrenergic (1 μM ligand conc.) α2B ([2]; 1 μM)	Percent Inhibition of ligand binding, Serotonin (1 μM ligand concentration) 5-HT2C [3]	Percent Inhibition of ligand binding, Serotonin (1 μM ligand concentration) 5-HT6 [4]
Cc1ccc2c(c1)c1c(n2CC(O)c2ccc(F)cc2)CN2CCC1C2 (stereo not drawn) [Compound 31]	5%	79%	46%	46%					
Cc1ccc2c(c1)c1c(n2CC(=O)NC2CCCCC2)CN2CCC1C2 (stereo not drawn) [Compound 23]	-3%	-6%	11%	4%					
Cc1ccc2c(c1)c1c(n2CC(C)(O)c2ccc(Cl)c(Cl)c2)CN2CCC1C2 (stereo not drawn) [Compound 13]	8%	99%	83%	17%					
C/C(=C\n1c2c(c3cc(C)ccc31)C1CCN(C2)C1)c1ccc(Cl)cc1Cl (stereo not drawn) [Compound 33]	35%	73%	95%	35%	9%				
Cc1ccc2c(c1)c1c(n2CCc2cncc(F)c2)CN2CCC1C2 (stereo not drawn) [Compound 9]	6%	45%	4%	40%					
C/C(=C\n1c2c(c3cc(C)ccc31)C1CCN(C2)C1)c1ccc(Cl)cc1Cl (stereo not drawn) [Compound 34]						40%	55%	99%	21%
Cc1ccc(C(O)Cn2c3c(c4cc(C)ccc42)C2CCN(C3)C2)cc1 (stereo not drawn) [Compound 5]	4%	78%	53%	14%					
COc1ccc(C(O)Cn2c3c(c4cc(C)ccc42)C2CCN(C3)C2)cc1F (stereo not drawn) [Compound 6]	-5%	73%	43%	22%					
Cc1ccc2c(c1)c1c(n2CC(C)(O)c2ccc(F)c(Cl)c2)CN2CCC1C2 (stereo not drawn) [Compound 18]	16%	107%	87%	49%					
Cc1ccc2c(c1)c1c(n2CC(=O)c2ccc(Cl)cc2)CN2CCC1C2 (stereo not drawn) [Compound 29]	19%	58%	74%	32%					
C/C(=C\n1c2c(c3cc(C)ccc31)C1CCN(C2)C1)c1ccc(F)c(F)c1 (stereo not drawn) [Compound 39]	20%		94%	81%					
Cc1ccc2c(c1)c1c(n2CC(C)(O)c2ccc(F)cc2)CN2CCC1C2 (stereo not drawn) [Compound 2]	8%	84%	57%	58%					
Cc1ccc2c(c1)c1c(n2CCc2ccncc2)CN2CCC1C2 (stereo not drawn) [Compound 30]	18%	76%	85%	33%					
Cc1ccc2c(c1)c1c(n2C#Cc2ccc(Cl)cc2)CN2CCC1C2 (stereo not drawn) [Compound 35]	19%		94%	12%					
Cc1ccc(/C=C/n2c3c(c4cc(C)ccc42)C2CCN(C3)C2)cc1 (stereo not drawn) [Compound 10]	6%	66%	9%	-4%					
Cc1ccc2c(c1)c1c(n2C(=O)Cc2ccc(F)cc2)CN2CCC1C2 (stereo not drawn) [Compound 43]	7%		66%	7%					
COc1ccc(/C(C)=C/n2c3c(c4cc(C)ccc42)C2CCN(C3)C2)cc1 (stereo not drawn) [Compound 45]	21%		98%	80%	15%				
Cc1ccc(C(C)(O)Cn2c3c(c4cc(C)ccc42)C2CCN(C3)C2)cc1 (stereo not drawn) [Compound 20]	2%	97%	94%	13%					
Cc1ccc2c(c1)c1c(n2CC(C)(O)c2ccc(Cl)cc2Cl)CN2CCC1C2 (stereo not drawn) [Compound 14]	24%	68%	87%	1%					
Cc1ccc2c(c1)c1c(n2CC(C)(O)c2ccc(F)cc2F)CN2CCC1C2 (stereo not drawn) [Compound 17]	4%	90%	92%	9%					
Cc1ccc2c(c1)c1c(n2CC(C)(O)c2ccc(F)c(F)c2)CN2CCC1C2 (stereo not drawn) [Compound 15]	13%	106%	87%	59%					
COc1ccc(C(O)Cn2c3c(c4cc(C)ccc42)C2CCN(C3)C2)cc1OC (stereo not drawn) [Compound 8]	2%	34%	12%	11%					
Cc1ccc2c(c1)c1c(n2CC(=O)c2ccc(F)cc2)CN2CCC1C2 (stereo not drawn) [Compound 28]	18%	45%	83%	15%					
COc1ccc(/C(C)=C/n2c3c(c4cc(C)ccc42)C2CCN(C3)C2)cc1F (stereo not drawn) [Compound 41]	24%		97%	48%					
C/C(=C\n1c2c(c3cc(C)ccc31)C1CCN(C2)C1)c1cccnc1 (stereo not drawn) [Compound 42]	1%		64%	26%					
C/C(=C/n1c2c(c3cc(C)ccc31)C1CCN(C2)C1)c1ccccc1F (stereo not drawn) [Compound 37]	22%		94%	70%					
C/C(=C\n1c2c(c3cc(C)ccc31)C1CCN(C2)C1)c1ccc(Cl)c(Cl)c1 (stereo not drawn) [Compound 40]	39%		89%	12%					
